Laboratory results reported in US12187653B2, “Surface retarder formulation and method for replicating an acid etch or sand blast aspect on cementitious material” (GCP Applied Technologies Inc., priority 2018, dated 2025).

Assay: Cement binding: percent of species absorbed to cement, by ion chromatography
Conditions: 1% acid in 2% KOH solution, 30 g solution on 3 g cement, 10 min
Description: Each acid was dissolved at 1% by weight in a 2% by weight KOH solution. Thirty grams of solution was exposed to 3 g of Type I/II cement in a tube, and mixed on a tube rotator for 10 min @ 30 rpm. The resulting slurry was centrifuged for 1 min at 4000 rpm to separate the cement and adsorbed compounds from the soluble species. The soluble portion was filtered with a 0.2 micron syringe filter and then analyzed by ion chromatography using an ICS-2100 RFIC by Dionex with single point calibration with a standard at 100 ppm. Samples and standards were prepared in 50 mM KOH solution. Samples' dilutions were adjusted to be within calibration range. Data analysis run through peak area integration.
The cement binding is expressed as a percent of the species present that absorbed to the cement.

Row | Compound | % adsorbed [%]
1 | C/C(=C/C(=O)O)C(=O)O [Citraconic Acid] | 1.9
2 | O=C(O)c1ccccc1C(=O)O [Phthalic Acid] | 0
3 | C/C(=C\C(=O)O)C(=O)O [Mesaconic Acid] | 0
4 | O=C(O)C(O)C(O)C(=O)O (centres unmarked) [L Tartaric Acid] | 21.5
5 | O=C(O)C(=O)O [Oxalic Acid] | 94.8
6 | O=C(O)CC(=O)O [Malonic Acid] | 6.3
7 | O=C(O)CCCCC(=O)O [Adipic Acid] | 1.1
8 | O=C(O)CCCC(=O)O [Glutaric Acid] | 0
9 | CC(C(=O)O)C(=O)O [Methymalonic Acid, Methylmalonic acid] | 7.0
10 | O=C(O)C(O)C(O)C(=O)O (centres unmarked) [D Tartaric Acid] | 29.1
11 | O=C(O)C(O)C(O)C(=O)O (racemic) [DL-Tartaric Acid] | 31.6
12 | O=C(O)CCC(=O)O [Succinic Acid] | 6.4

Same assay, conditions: Example 6, procedure of Example 1B

Row | Compound | % binding to cement [%]
13 | NCCCCCCCCCCCC(=O)O [12-Aminododecanoic Acid] | 90
14 | O=C(O)/C=C(\CC(=O)O)C(=O)O [trans-Aconitic Acid] | 5
15 | OB(O)O [Boric Acid by ICP, Boric Acid] | 100
16 | O=C[C@H](O)[C@@H](O)[C@H](O)[C@H](O)CO [D-(+)-Glucose] | 100
17 | O=C(O)CN(CCN(CC(=O)O)CC(=O)O)CC(=O)O [Ethylenediamine-tetraacetic] | 36

Assay: Etch quality of in-form surface retarder on cast concrete after pressure washing
Conditions: Example 2: retarder with 8 g acid, 400 ft^2/gallon on wood form, concrete cured 22 hours at 90° F., compared to FIG. 1
Description: Each was used to make an in-form surface retarder by combining the materials shown below, in the order listed, in a Silverson-high shear rotor-stator mixer at 5000 rpm, and mixing for 10 minutes after the final addition.
The exemplary in-form surface retarder was roller applied in rectangles on a wood form at a rate of 400 ft^2/gallon and allowed to dry for 2 hours at 72° F.
The concrete was poured into the wood form which has the surface retarder paint applied. The concrete was allowed to dry and cure without covering for 22 hours at a temperature of 90° F.
After 22 hours of curing, the concrete was removed from the wood mold and sprayed with high pressure water from a 1900 psi pressure washer to remove the in-form surface retarder and retarded cement paste. Washing continued until water was running clear and no further cement paste is removed (this process removes whatever cement paste that has not hardened to the surface of the concrete due to the retarding effects of the acids tested).

Row | Compound | Etch depth
18 | C/C(=C/C(=O)O)C(=O)O [Citraconic Acid] | Lighter than optimum, not even
19 | O=C(O)c1ccccc1C(=O)O [Phthalic Acid] | Very light to none
20 | C/C(=C\C(=O)O)C(=O)O [Mesaconic Acid] | Very light to none
21 | O=C(O)C(O)C(O)C(=O)O (centres unmarked) [L Tartaric Acid] | too deep, coarse aggregates visible
22 | O=C(O)C(=O)O [Oxalic Acid] | just right, light etch showing sand textures
23 | O=C(O)CC(=O)O [Malonic Acid] | too deep, coarse aggregates visible
24 | O=C(O)CCCCC(=O)O [Adipic Acid] | Lighter than optimum, not even
25 | O=C(O)CCCC(=O)O [Glutaric Acid] | just right, light etch showing sand textures
26 | CC(C(=O)O)C(=O)O [Methymalonic Acid, Methylmalonic acid] | Very light to none
27 | O=C(O)C(O)C(O)C(=O)O (centres unmarked) [D Tartaric Acid] | too deep, coarse aggregates visible
28 | O=C(O)C(O)C(O)C(=O)O (racemic) [DL-Tartaric Acid] | just right, light etch showing sand textures
29 | O=C(O)CCC(=O)O [Succinic Acid] | Lighter than optimum, not even

Same assay, conditions: Example 3, same procedure as Example 2; tartaric acid forms compared

Row | Compound | Etch depth
30 | O=C(O)C(O)C(O)C(=O)O (centres unmarked) [L Tartaric Acid] | too deep, coarse aggregates visible
31 | O=C(O)C(O)C(O)C(=O)O (centres unmarked) [D Tartaric Acid] | too deep, coarse aggregates visible
32 | O=C(O)C(O)C(O)C(=O)O (racemic) [DL-Tartaric Acid] | just right, light etch showing sand textures

Same assay, conditions: Example 6, procedure of Example 2

Row | Compound | surface etch
33 | NCCCCCCCCCCCC(=O)O [12-Aminododecanoic Acid] | very light to none
34 | O=C(O)CN(CCN(CC(=O)O)CC(=O)O)CC(=O)O [Ethylenediamine-tetraacetic] | very light to none

Assay: not given
Conditions: Table 5: resin in the given solvent
Description: The solubility of resin in various organic solvents was evaluated by observation. A small amount of resin (0.2 g) was placed in a vial with 3 mL of the solvent. Observations were made immediately, after two hours and thirty minutes, and after 15 hours.

Row | Compound | Resin solubility
35 | Xylene | Dissolved
36 | CCCCOC(C)=O [Butyl Acetate] | Dissolved

Assay: Solubility of acids in water, saturated solution measured by Total Organic Carbon
Conditions: in 100 mL water, 25° C., stirred 14 hours, TOC
Description: The mixture was allowed to settle and the saturated aqueous solution of acid was decanted. Concentration was measured by Total Organic Carbon using a TOC-L CSH/CSN by Shimadzu. A calibration curve is generate based off a four point calibration of 0 ppm, 25 ppm, 50 ppm, and 100 ppm carbon. Samples are then diluted to a predetermined dilution factor. 20 mL of the diluted samples are acidified to a pH of ^˜2-3 with hydrochloric acid. Samples are run based off the calibration curve performing two 50 uL injections each to determine the total organic carbon of the sample.

Row | Compound | Solubility [g/100 g]
37 | O=C(O)CCCC(=O)O [Glutaric Acid] | 36
38 | CC(C(=O)O)C(=O)O [Methymalonic Acid, Methylmalonic acid] | 5
